Reference: patent US12281149B2, “Modulators of G-protein coupled receptors” (priority 2021, dated 2025)
*1 amine or outer side, *2 acyl side, *3 side chain or, on linkers, in order; H or OH if unused. Where a SMILES comes first, the peptide text is derived from it. Side-chain parts run from the residue outwards. [ ]: non-standard residue; d: D form. The star is where a group is joined. C20 diacid = O=C(O)CCCCCCCCCCCCCCCCCCC(=O)*; γGlu = O=C(O)[C@H](CCC(=O)[*:2])N[*:1]; X51 = COc1cccc(C2(C(=O)*)CCCC2)c1; X44 = COc1ccc(C(C)(C)C(=O)*)cc1; X15 = O=C(C1(c2cccc(F)c2)CC1)*; X11 = C[C@@H](C(=O)*)c1ccccc1; X78 = CC(C)(C(=O)*)C1CCCCC1; AEEA = NCCOCCOCC(=O)O; Aib = CC(C)(N)C(=O)O; βAla = NCCC(=O)O

Tests used:
Assay type in all cases: cell-based
[1] = target: T1, GIP receptor (Homo sapiens, UniProt P48546); test: PathHunter β-arrestin assay, GIP receptor; set-up: host or cells: PathHunter CHO-K1 GIPR β-Arrestin Cell Line; conditions: β-arrestin-2 recruitment, PathHunter CHO-K1 GIPR β-Arrestin Cell Line, 90 min at 37° C.; normalized to GIP; read-out: GIPR β Arrestin EC50
T1 sequence (P48546 22-466): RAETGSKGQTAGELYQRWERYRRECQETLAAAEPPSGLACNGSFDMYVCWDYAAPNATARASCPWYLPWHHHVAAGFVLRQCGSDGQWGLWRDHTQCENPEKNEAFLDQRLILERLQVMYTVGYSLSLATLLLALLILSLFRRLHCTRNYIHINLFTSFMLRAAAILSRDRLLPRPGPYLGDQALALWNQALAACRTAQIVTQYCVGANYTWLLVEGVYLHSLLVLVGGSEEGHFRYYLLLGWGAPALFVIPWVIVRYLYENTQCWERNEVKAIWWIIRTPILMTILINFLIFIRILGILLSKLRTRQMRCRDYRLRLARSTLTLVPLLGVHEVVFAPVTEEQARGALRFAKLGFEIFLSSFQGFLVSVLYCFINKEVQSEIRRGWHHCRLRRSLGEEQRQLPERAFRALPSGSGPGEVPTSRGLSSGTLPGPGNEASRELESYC

[2] = target: T2, GLP-1 receptor (Homo sapiens, UniProt P43220); test: HitHunter cAMP assay, GLP-1 receptor; conditions: for EC50: CHO cells stably expressing human GLP-1 receptor, cAMP accumulation, 30 min, read-out: EC50 GLP-1R; for Emax: CHO cells, cAMP, normalized to maximum signal from GLP-1 (high) and DMSO (low), read-out: Emax GLP-1R
[3] = target: T2, GLP-1 receptor; test: PathHunter β-arrestin assay, GLP-1 receptor; set-up: host or cells: PathHunter CHO-K1 GLP1R β-Arrestin Cell Line; conditions: β-arrestin-2 recruitment, PathHunter CHO-K1 GLP1R β-Arrestin Cell Line, 90 min at 37° C.; normalized to GLP-1; read-out: GLP-1R β Arrestin EC50
[4] = target: T1, GIP receptor; test: HitHunter cAMP assay, GIP receptor; conditions: for EC50: CHO cells stably expressing GIP receptor, cAMP accumulation, 30 min, read-out: EC50 GIP-1R; for Emax: CHO cells, cAMP, normalized to maximum signal from GIP (high) and DMSO (low), read-out: Emax GIP-1R

T2 sequence (P43220 24-463): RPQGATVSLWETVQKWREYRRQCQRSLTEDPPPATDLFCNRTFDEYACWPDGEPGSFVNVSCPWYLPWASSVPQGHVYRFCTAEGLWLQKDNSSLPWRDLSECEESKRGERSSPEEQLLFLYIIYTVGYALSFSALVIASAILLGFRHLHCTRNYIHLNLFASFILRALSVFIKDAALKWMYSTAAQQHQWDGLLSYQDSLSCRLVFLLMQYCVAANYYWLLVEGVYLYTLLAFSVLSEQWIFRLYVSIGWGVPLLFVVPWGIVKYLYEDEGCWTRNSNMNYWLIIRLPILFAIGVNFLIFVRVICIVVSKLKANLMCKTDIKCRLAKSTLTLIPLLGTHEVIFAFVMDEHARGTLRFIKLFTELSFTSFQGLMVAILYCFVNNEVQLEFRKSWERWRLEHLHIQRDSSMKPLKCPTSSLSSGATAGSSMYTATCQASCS

`CC[C@H](C)[C@H](NC(=O)[C@H](CC(C)C)NC(=O)[C@H](Cc1c[nH]c2ccccc12)NC(=O)[C@H](CCC(N)=O)NC(=O)[C@@H](NC(=O)[C@H](Cc1ccccc1)NC(=O)[C@H](C)NC(=O)[C@H](CCCCNC(=O)COCCOCCNC(=O)COCCOCCNC(=O)CC[C@H](NC(=O)CCCCCCCCCCCCCCCCCCC(=O)O)C(=O)O)NC(=O)[C@H](CCC(N)=O)NC(=O)[C@H](C)NC(=O)[C@@H](NC(=O)[C@H](CCCCN)NC(=O)[C@H](CC(=O)O)NC(=O)[C@H](CC(C)C)NC(=O)C(C)(C)NC(=O)[C@@H](NC(=O)[C@H](CO)NC(=O)[C@H](Cc1ccc(O)cc1)NC(=O)[C@H](CC(=O)O)NC(=O)[C@H](CO)NC(=O)[C@@H](NC(=O)[C@H](Cc1ccccc1)NC(=O)[C@@H](NC(=O)CNC(=O)[C@H](CCC(=O)O)NC(=O)CCNC(=O)C(C)(C)c1ccc(OC)cc1)[C@@H](C)O)[C@@H](C)O)[C@@H](C)CC)[C@@H](C)CC)C(C)C)C(=O)N[C@@H](C)C(=O)NCC(=O)NCC(=O)N1CCC[C@H]1C(=O)N[C@@H](CO)C(=O)N[C@@H](CO)C(=O)NCC(=O)N[C@@H](C)C(=O)N1CCC[C@H]1C(=O)N1CCC[C@H]1C(=O)N1CCC[C@H]1C(=O)N[C@@H](CO)C(N)=O` [Compound 203] ({X44-βAla}-EGTFTSDYSI[Aib]LDKIAQK([AEEA-AEEA-γGlu-C20 diacid])AFVQWLIAGGPSSGAPPPS-NH2) showed an EC50 [1] of less than 1000 nM, an EC50 [2] of 0.1 to 1 nM and an Emax [2] of 103%. The EC50 [3] was greater than 1000 nM, the EC50 [4] was 1 to 10 nM and the Emax [4] was 103%.

`CC[C@H](C)[C@H](NC(=O)[C@H](CC(C)C)NC(=O)[C@H](Cc1c[nH]c2ccccc12)NC(=O)[C@H](CCC(N)=O)NC(=O)[C@@H](NC(=O)[C@H](Cc1ccccc1)NC(=O)[C@H](C)NC(=O)[C@H](CCCCNC(=O)COCCOCCNC(=O)COCCOCCNC(=O)CC[C@H](NC(=O)CCCCCCCCCCCCCCCCCCC(=O)O)C(=O)O)NC(=O)[C@H](CCC(N)=O)NC(=O)[C@H](C)NC(=O)[C@@H](NC(=O)[C@H](CCCCN)NC(=O)[C@H](CC(=O)O)NC(=O)[C@H](CC(C)C)NC(=O)C(C)(C)NC(=O)[C@@H](NC(=O)[C@H](CO)NC(=O)[C@H](Cc1ccc(O)cc1)NC(=O)[C@H](CC(=O)O)NC(=O)[C@H](CO)NC(=O)[C@@H](NC(=O)[C@H](Cc1ccccc1)NC(=O)[C@@H](NC(=O)CNC(=O)[C@H](CCC(=O)O)NC(=O)CCNC(=O)[C@H](C)c1ccccc1)[C@@H](C)O)[C@@H](C)O)[C@@H](C)CC)[C@@H](C)CC)C(C)C)C(=O)N[C@@H](C)C(=O)NCC(=O)NCC(=O)N1CCC[C@H]1C(=O)N[C@@H](CO)C(=O)N[C@@H](CO)C(=O)NCC(=O)N[C@@H](C)C(=O)N1CCC[C@H]1C(=O)N1CCC[C@H]1C(=O)N1CCC[C@H]1C(=O)N[C@@H](CO)C(N)=O` [Compound 204] ({X11-βAla}-EGTFTSDYSI[Aib]LDKIAQK([AEEA-AEEA-γGlu-C20 diacid])AFVQWLIAGGPSSGAPPPS-NH2) gave an EC50 [1] greater than 1000 nM, an EC50 [2] of 1 to 10 nM and an Emax [2] of 106%. The EC50 [3] was greater than 1000 nM, the EC50 [4] was 10 to 100 nM and the Emax [4] was 105%.

`CC[C@H](C)[C@H](NC(=O)[C@H](CC(C)C)NC(=O)[C@H](Cc1c[nH]c2ccccc12)NC(=O)[C@H](CCC(N)=O)NC(=O)[C@@H](NC(=O)[C@H](Cc1ccccc1)NC(=O)[C@H](C)NC(=O)[C@H](CCCCNC(=O)COCCOCCNC(=O)COCCOCCNC(=O)CC[C@H](NC(=O)CCCCCCCCCCCCCCCCCCC(=O)O)C(=O)O)NC(=O)[C@H](CCC(N)=O)NC(=O)[C@H](C)NC(=O)[C@@H](NC(=O)[C@H](CCCCN)NC(=O)[C@H](CC(=O)O)NC(=O)[C@H](CC(C)C)NC(=O)C(C)(C)NC(=O)[C@@H](NC(=O)[C@H](CO)NC(=O)[C@H](Cc1ccc(O)cc1)NC(=O)[C@H](CC(=O)O)NC(=O)[C@H](CO)NC(=O)[C@@H](NC(=O)[C@H](Cc1ccccc1)NC(=O)[C@@H](NC(=O)CNC(=O)[C@H](CCC(=O)O)NC(=O)CCNC(=O)C(C)(C)C1CCCCC1)[C@@H](C)O)[C@@H](C)O)[C@@H](C)CC)[C@@H](C)CC)C(C)C)C(=O)N[C@@H](C)C(=O)NCC(=O)NCC(=O)N1CCC[C@H]1C(=O)N[C@@H](CO)C(=O)N[C@@H](CO)C(=O)NCC(=O)N[C@@H](C)C(=O)N1CCC[C@H]1C(=O)N1CCC[C@H]1C(=O)N1CCC[C@H]1C(=O)N[C@@H](CO)C(N)=O` [Compound 205] ({X78-βAla}-EGTFTSDYSI[Aib]LDKIAQK([AEEA-AEEA-γGlu-C20 diacid])AFVQWLIAGGPSSGAPPPS-NH2) gave an EC50 [1] greater than 1000 nM, an EC50 [2] of 1 to 10 nM and an Emax [2] of 99%. The EC50 [3] was greater than 1000 nM, the EC50 [4] was 10 to 100 nM and the Emax [4] was 99%.

For `CC[C@H](C)[C@H](NC(=O)[C@H](CC(C)C)NC(=O)[C@H](Cc1c[nH]c2ccccc12)NC(=O)[C@H](CCC(N)=O)NC(=O)[C@@H](NC(=O)[C@H](Cc1ccccc1)NC(=O)[C@H](C)NC(=O)[C@H](CCCCNC(=O)COCCOCCNC(=O)COCCOCCNC(=O)CC[C@H](NC(=O)CCCCCCCCCCCCCCCCCCC(=O)O)C(=O)O)NC(=O)[C@H](CCC(N)=O)NC(=O)[C@H](C)NC(=O)[C@@H](NC(=O)[C@H](CCCCN)NC(=O)[C@H](CC(=O)O)NC(=O)[C@H](CC(C)C)NC(=O)C(C)(C)NC(=O)[C@@H](NC(=O)[C@H](CO)NC(=O)[C@H](Cc1ccc(O)cc1)NC(=O)[C@H](CC(=O)O)NC(=O)[C@H](CO)NC(=O)[C@@H](NC(=O)[C@H](Cc1ccccc1)NC(=O)[C@@H](NC(=O)CNC(=O)[C@H](CCC(=O)O)NC(=O)CCNC(=O)C1(c2cccc(F)c2)CC1)[C@@H](C)O)[C@@H](C)O)[C@@H](C)CC)[C@@H](C)CC)C(C)C)C(=O)N[C@@H](C)C(=O)NCC(=O)NCC(=O)N1CCC[C@H]1C(=O)N[C@@H](CO)C(=O)N[C@@H](CO)C(=O)NCC(=O)N[C@@H](C)C(=O)N1CCC[C@H]1C(=O)N1CCC[C@H]1C(=O)N1CCC[C@H]1C(=O)N[C@@H](CO)C(N)=O` [Compound 206] ({X15-βAla}-EGTFTSDYSI[Aib]LDKIAQK([AEEA-AEEA-γGlu-C20 diacid])AFVQWLIAGGPSSGAPPPS-NH2), the EC50 [1] was greater than 1000 nM, the EC50 [2] was 1 to 10 nM and the Emax [2] was 98%. The EC50 [3] was greater than 1000 nM, the EC50 [4] was 10 to 100 nM and the Emax [4] was 106%.

`CC[C@H](C)[C@H](NC(=O)[C@H](CC(C)C)NC(=O)[C@H](Cc1c[nH]c2ccccc12)NC(=O)[C@H](CCC(N)=O)NC(=O)[C@@H](NC(=O)[C@H](Cc1ccccc1)NC(=O)[C@H](C)NC(=O)[C@H](CCCCNC(=O)COCCOCCNC(=O)COCCOCCNC(=O)CC[C@H](NC(=O)CCCCCCCCCCCCCCCCCCC(=O)O)C(=O)O)NC(=O)[C@H](CCC(N)=O)NC(=O)[C@H](C)NC(=O)[C@@H](NC(=O)[C@H](CCCCN)NC(=O)[C@H](CC(=O)O)NC(=O)[C@H](CC(C)C)NC(=O)C(C)(C)NC(=O)[C@@H](NC(=O)[C@H](CO)NC(=O)[C@H](Cc1ccc(O)cc1)NC(=O)[C@H](CC(=O)O)NC(=O)[C@H](CO)NC(=O)[C@@H](NC(=O)[C@H](Cc1ccccc1)NC(=O)[C@@H](NC(=O)CNC(=O)[C@H](CCC(=O)O)NC(=O)CCNC(=O)C1(c2cccc(OC)c2)CCCC1)[C@@H](C)O)[C@@H](C)O)[C@@H](C)CC)[C@@H](C)CC)C(C)C)C(=O)N[C@@H](C)C(=O)NCC(=O)NCC(=O)N1CCC[C@H]1C(=O)N[C@@H](CO)C(=O)N[C@@H](CO)C(=O)NCC(=O)N[C@@H](C)C(=O)N1CCC[C@H]1C(=O)N1CCC[C@H]1C(=O)N1CCC[C@H]1C(=O)N[C@@H](CO)C(N)=O` [Compound 207] ({X51-βAla}-EGTFTSDYSI[Aib]LDKIAQK([AEEA-AEEA-γGlu-C20 diacid])AFVQWLIAGGPSSGAPPPS-NH2) gave an EC50 [1] greater than 1000 nM, an EC50 [2] of 1 to 10 nM and an Emax [2] of 97%. For the same molecule, the EC50 [3] was greater than 1000 nM, the EC50 [4] was 1 to 10 nM and the Emax [4] was 109%.
